# Measured values: US20020090402A1, “Pharmaceutical composition against type I allergy and the preparation thereof” (priority 2000, published 2002)
# Tested on: passive skin sensitization for the rats
# Assay: anti-allergic pharmacodynamics: passive skin sensitization of rats (anti-trichosanthes serum, Evans blue, 620 nm colorimetry)
# Type: in vivo, Wistar male rats
# Conditions: rat, 5 mg/Kg IV one minute before second sensitization
# Text: Research of anti-allergic pharmacodynamics of the pharmaceutical composition of the present invention
# Wistar male rats with body weight of 100˜120 g were used, which were provided by the Experimental Animal Center of the Chinese Academy of Medical Sciences.
# 1. Tablets of this pharmaceutical composition obtained from Example 1 of this invention. It was made into a suspension with 0.5%CMC-Na.
# 2. Positive contrast medicament: disodium chromoglycate (produced by Shanghai Pharmaceutical Factory No. 5). It is dissolved with normal saline when it is used.
# After the rats were divided in groups at random, they were lavaged and dosed with the above-mentioned pharmaceutical composition of this invention according to 6 g/Kg and 3 g/Kg, once a day, continuously for 10 days. After hair on their backs of all groups of animals was removed, said animals were sensitized for the first time with hypodermic injection with anti-trichosanthes serum. At the same time, the dosing groups took the pharmaceutical composition according to 6 g/Kg, two hours before the second sensitization. The positive contrast groups were dosed with IV of disodium chromoglycate in accordance of 5 mg/Kg, one minute before the second sensitization was made. All groups of animals were given with IV of 1% EVANSLAN (including trichosanthes protein of 1 mg/ml) in accordance with 1 mg/Kg for the second sensitization. […]
compound,measurement,setting,value
"O=C([O-])c1cc(=O)c2c(OCC(O)COc3cccc4oc(C(=O)[O-])cc(=O)c34)cccc2o1.[Na+].[Na+] [Positive contrast, disodium chromoglycate]",Inhibition rate,,78.2%
same,OD value (X ± SD),620 nm,0.19 ± 0.11
